Source: EP3495350B1, “COMPOUND INHIBITING FORMATION OF C-MYC/MAX/DNA COMPLEX” (National Cancer Center, priority 2016, dated 2018)

Assays:
MBT-2 = experiment: Cell based assay, cell viability (CellTiter-Glo), MBT-2; conditions: 72 hours, 0 to 2 µM; read-out: cell based assay cell line 1 MBT-2 IC50
Experimental: (§1) Commercially available bladder cancer cell lines were treated with trypsin-EDTA and seeded in each well of a 96 well plate, followed by incubation for 24 hours. After incubation, candidate compounds were added to each well at a final concentration of 0 to 2 µM. The compound-treated cells were further incubated for 72 hours. Cell viability was measured using an ATP detection method (CellTiter-Glo Luminescent Cell Viability Assay, Promega).
(§2) The selectivity of the compounds of the present disclosure to cancer cells was evaluated in the same manner as described in "2. Cell based assay".

KU19-19 = experiment: Cell based assay, cell viability (CellTiter-Glo), KU19-19; conditions: Homo sapiens, KU-19-19; 72 hours, 0 to 2 µM; read-out: cell based assay cell line 2 KU19-19 IC50
Experimental: as §1, §2

253J = experiment: Cell based assay, cell viability (CellTiter-Glo), 253J; conditions: Homo sapiens; 72 hours, 0 to 2 µM; read-out: cell based assay cell line 3 253J IC50
Experimental: as §1, §2

UM-UC-3 = experiment: Cell based assay, cell viability (CellTiter-Glo), UM-UC-3; conditions: Homo sapiens, UMUC3; 72 hours, 0 to 2 µM; read-out: cell based assay cell line 4 UM-UC-3 IC50
Experimental: as §1, §2

Structure (SMILES)	IC50 (MBT-2)	IC50 (KU19-19)	IC50 (253J)	IC50 (UM-UC-3)
CC(=O)c1c([S+]([O-])Cc2ccc(Cl)cc2)[nH]c2c(Br)ccc(Cl)c2c1=O (stereo not shown) [Compound 11, 3-acetyl-8-bromo-5-chloro-2-((4-chlorobenzyl)sulfinyl)quinolin-4(1H)-one]	> 2000 nM	> 2000 nM	1410 nM	1490 nM
CC(=O)c1c([S+]([O-])c2ccccc2)[nH]c2c(Br)ccc(Cl)c2c1=O (stereo not shown) [Compound 13, 3-acetyl-8-bromo-5-chloro-2-(phenylsulfinyl)quinolin-4(1H)-one]	> 2000 nM	> 2000 nM	> 2000 nM	> 2000 nM
COc1ccccc1[S+]([O-])c1[nH]c2c(Br)ccc(Cl)c2c(=O)c1C(C)=O (stereo not shown) [Compound 15, 3-acetyl-8-bromo-5-chloro-2-((2-methoxyphenyl)sulfinyl)quinolin-4(1H)-one]	> 2000 nM	1910 nM	> 2000 nM	> 2000 nM
CC(=O)c1c([S+]([O-])c2ccc(Br)cc2)[nH]c2c(Br)ccc(Cl)c2c1=O (stereo not shown) [Compound 17, 3-acetyl-8-bromo-2-((4-bromophenyl)sulfinyl)-5-chloroquinolin-4(1H)-one]	> 2000 nM	> 2000 nM	> 2000 nM	> 2000 nM
CC(=O)c1c([S+]([O-])C(C)c2ccccc2)[nH]c2c(Br)ccc(Cl)c2c1=O (stereo not shown) [Compound 26, 3-acetyl-8-bromo-5-chloro-2-((1-phenylethyl)sulfinyl)quinolin-4(1H)-one]	> 2000 nM	> 2000 nM	> 2000 nM	> 2000 nM
CC(=O)c1c([S+]([O-])Cc2cccc(C#N)c2)[nH]c2c(Br)ccc(Cl)c2c1=O (stereo not shown) [Compound 28, 3-(((3-acetyl-8-bromo-5-chloro-4-oxo-1,4-dihydroquinolin-2-yl)sulfinyl)methyl)benzonitrile]	790 nM	1460 nM	740 nM	790 nM
CC(=O)c1c([S+]([O-])Cc2ccc(F)cc2F)[nH]c2c(Br)ccc(Cl)c2c1=O (stereo not shown) [Compound 29, 3-acetyl-8-bromo-5-chloro-2-((2,4-difluorobenzyl)sulfinyl)quinolin-4(1H)-one]	1200 nM	1680 nM	960 nM	1130 nM
CC(=O)c1c([S+]([O-])Cc2ccc(F)c(Cl)c2)[nH]c2c(Br)ccc(Cl)c2c1=O (stereo not shown) [Compound 31, 3-acetyl-8-bromo-5-chloro-2-((3-chloro-4-fluorobenzyl)sulfinyl)quinolin-4(1H)-one]	1280 nM	1450 nM	890 nM	1020 nM
CC(=O)c1c(S(=O)(=O)Cc2ccccc2)[nH]c2c(Br)ccc(Cl)c2c1=O [Compound 34, 3-acetyl-2-(benzylsulfonyl)-8-bromo-5-chloroquinolin-4(1H)-one]	> 2000 nM	> 2000 nM	> 2000 nM	> 2000 nM
CC(=O)c1c([S+]([O-])Cc2cc(Cl)ccc2Cl)[nH]c2c(Br)ccc(Cl)c2c1=O (stereo not shown) [Compound 44, 3-acetyl-8-bromo-5-chloro-2-((2,5-dichlorobenzyl)sulfinyl)quinolin-4(1H)-one]	1150 nM	1270 nM	1240 nM	970 nM
CC(=O)c1c([S+]([O-])Cc2cc(F)cc(F)c2)[nH]c2c(Br)ccc(Cl)c2c1=O (stereo not shown) [Compound 46, 3-acetyl-8-bromo-5-chloro-2-((3,5-difluorobenzyl)sulfinyl)quinolin-4(1H)-one]	1840 nM	1800 nM	1960 nM	1220 nM
CC(=O)c1c([S+]([O-])Cc2cccc(I)c2)[nH]c2c(Br)ccc(Cl)c2c1=O (stereo not shown) [Compound 48, 3-acetyl-8-bromo-5-chloro-2-((3-iodobenzyl)sulfinyl)quinolin-4(1H)-one]	> 2000 nM	> 2000 nM	> 2000 nM	1820 nM
CC(=O)c1c([S+]([O-])Cc2cccc(F)c2)[nH]c2c(Br)ccc(Cl)c2c1=O (stereo not shown) [Compound 50, 3-acetyl-8-bromo-5-chloro-2-((3-fluorobenzyl)sulfinyl)quinolin-4(1H)-one]	1580 nM	1690 nM	1430 nM	1260 nM
CC(=O)c1c([S+]([O-])Cc2cc(C)on2)[nH]c2c(Br)ccc(Cl)c2c1=O (stereo not shown) [Compound 51, 3-acetyl-8-bromo-5-chloro-2-(((5-methylisoxazol-3-yl)methyl)sulfinyl)quinolin-4(1H)-one]	760 nM	1260 nM	1130 nM	630 nM
CC(=O)c1c([S+]([O-])Cc2ccccc2)nc2c(Br)ccc(Cl)c2c1O (stereo not shown) [Compound 53, 1-(2-(benzylsulfinyl)-8-bromo-5-chloro-4-hydroxyquinolin-3-yl)ethan-1-one]	> 2000 nM	> 2000 nM	> 2000 nM	> 2000 nM
COc1cccc(C[S+]([O-])c2[nH]c3c(Br)ccc(Cl)c3c(=O)c2C(C)=O)c1 (stereo not shown) [Compound 55, 3-acetyl-8-bromo-5-chloro-2-((3-methoxybenzyl)sulfinyl)quinolin-4(1H)-one]	> 2000 nM	1380 nM	1330 nM	1580 nM
CC(=O)c1c([S+]([O-])Cc2ccc(SC(F)(F)F)cc2)[nH]c2c(Br)ccc(Cl)c2c1=O (stereo not shown) [Compound 56, 3-acetyl-8-bromo-5-chloro-2-((4-((trifluoromethyl)thio)benzyl)sulfinyl)quinolin-4(1H)-one]	1180 nM	940 nM	1110 nM	1250 nM
CC(=O)c1c([S+]([O-])Cc2ccc([N+](=O)[O-])cc2)[nH]c2c(Cl)ccc(Cl)c2c1=O (stereo not shown) [Compound 57, 3-acetyl-5,8-dichloro-2-((4-nitrobenzyl)sulfinyl)quinolin-4(1H)-one]	> 2000 nM	1830 nM	1920 nM	> 2000 nM
CC(=O)c1c([S+]([O-])Cc2ccccc2C#N)[nH]c2c(Br)ccc(Cl)c2c1=O (stereo not shown) [Compound 58, 2-(((3-acetyl-8-bromo-5-chloro-4-oxo-1,4-dihydroquinolin-2-yl)sulfinyl)methyl)benzonitrile]	860 nM	920 nM	920 nM	1220 nM
COc1cc(C[S+]([O-])c2[nH]c3c(Br)ccc(Cl)c3c(=O)c2C(C)=O)cc(OC)c1 (stereo not shown) [Compound 59, 3-acetyl-8-bromo-5-chloro-2-((3,5-dimethoxybenzyl)sulfinyl)quinolin-4(1H)-one]	1300 nM	1230 nM	1140 nM	1370 nM
CC(=O)c1c([S+]([O-])Cc2ccc(C(C)(C)C)cc2)[nH]c2c(Br)ccc(Cl)c2c1=O (stereo not shown) [Compound 60, 3-acetyl-8-bromo-2-((4-(tert-butyl)benzyl)sulfinyl)-5-chloroquinolin-4(1H)-one]	> 2000 nM	1560 nM	1710 nM	> 2000 nM
CC(=O)c1c([S+]([O-])Cc2ccc(C(=O)c3ccccc3)cc2)[nH]c2c(Br)ccc(Cl)c2c1=O (stereo not shown) [Compound 63, 3-acetyl-2-((4-benzoylbenzyl)sulfinyl)-8-bromo-5-chloroquinolin-4(1H)-one]	> 2000 nM	> 2000 nM	> 2000 nM	> 2000 nM
CC(=O)c1c([S+]([O-])Cc2ccc([S+]([O-])C(F)(F)F)cc2)[nH]c2c(Br)ccc(Cl)c2c1=O (stereo not shown) [Compound 64, 3-acetyl-8-bromo-5-chloro-2-((4-((trifluoromethyl)sulfinyl)benzyl)sulfinyl)quin olin-4(1H)-one]	840 nM	1410 nM	950 nM	1060 nM
CC(=O)c1c([S+]([O-])Cc2ccc(C(F)(F)F)cc2)[nH]c2c(Br)ccc(Cl)c2c1=O (stereo not shown) [Compound 70, 3-acetyl-8-bromo-5-chloro-2-((4-(trifluoromethyl)benzyl)sulfinyl)quinolin-4(1H)-one]	1330 nM	1750 nM	1040 nM	1260 nM
CC(=O)c1c([S+]([O-])Cc2ccc(OC(F)(F)F)cc2)[nH]c2c(Br)ccc(Cl)c2c1=O (stereo not shown) [Compound 71, 3-acetyl-8-bromo-5-chloro-2-((4-(trifluoromethoxy)benzyl)sulfinyl)quinolin-4(1H)-one]	1470 nM	1600 nM	1110 nM	1610 nM
CC(=O)c1c([S+]([O-])Cc2ccc(C(F)(F)F)o2)[nH]c2c(Br)ccc(Cl)c2c1=O (stereo not shown) [Compound 72, 3-acetyl-8-bromo-5-chloro-2-(((5-(trifluoromethyl)furan-2-yl)methyl)sulfinyl)quinolin-4(1H)-one]	1010 nM	1370 nM	830 nM	820 nM
CC(=O)c1c([S+]([O-])Cc2ccc(C#N)cc2)[nH]c2c(Br)ccc(Cl)c2c1=O (stereo not shown) [Compound 73, 4-(((3-acetyl-8-bromo-5-chloro-4-oxo-1,4-dihydroquinolin-2-yl)sulfinyl)methyl)benzonitrile]	1000 nM	2000 nM	1340 nM	1620 nM
CC(=O)c1c([S+]([O-])Cc2c(F)cccc2Cl)[nH]c2c(Br)ccc(Cl)c2c1=O (stereo not shown) [Compound 74, 3-acetyl-8-bromo-5-chloro-2-((2-chloro-6-fluorobenzyl)sulfinyl)quinolin-4(1H)-one]	1150 nM	1640 nM	810 nM	1540 nM
